# Data reported in patent US8399481B2, “Compounds” (Xention Ltd, priority 2009, dated 2013).
# No end group written: not given here.
# Tests used:
# [1] = test system: delayed-type hypersensitivity (DTH) response; settings: DTH model in vivo; cited from earlier work
# hKv1.3 = hKv1.3 (Homo sapiens, UniProt P22001); assay: hKv1.3 % inhibition at 1 uM (Table 1); format: cell-based; settings: for inhibition at 1 µM: read-out: hKv1.3 % inh. 1 uM
# hKv1.5 = hKv1.5 (Homo sapiens, UniProt P22460); assay: hKv1.5 % inhibition at 300 nM (Table 1); format: cell-based; settings: for inhibition at 0.3 µM: read-out: hKv1.5 % inh. 300 nM
# Chain of hKv1.5 (P22460 whole entry): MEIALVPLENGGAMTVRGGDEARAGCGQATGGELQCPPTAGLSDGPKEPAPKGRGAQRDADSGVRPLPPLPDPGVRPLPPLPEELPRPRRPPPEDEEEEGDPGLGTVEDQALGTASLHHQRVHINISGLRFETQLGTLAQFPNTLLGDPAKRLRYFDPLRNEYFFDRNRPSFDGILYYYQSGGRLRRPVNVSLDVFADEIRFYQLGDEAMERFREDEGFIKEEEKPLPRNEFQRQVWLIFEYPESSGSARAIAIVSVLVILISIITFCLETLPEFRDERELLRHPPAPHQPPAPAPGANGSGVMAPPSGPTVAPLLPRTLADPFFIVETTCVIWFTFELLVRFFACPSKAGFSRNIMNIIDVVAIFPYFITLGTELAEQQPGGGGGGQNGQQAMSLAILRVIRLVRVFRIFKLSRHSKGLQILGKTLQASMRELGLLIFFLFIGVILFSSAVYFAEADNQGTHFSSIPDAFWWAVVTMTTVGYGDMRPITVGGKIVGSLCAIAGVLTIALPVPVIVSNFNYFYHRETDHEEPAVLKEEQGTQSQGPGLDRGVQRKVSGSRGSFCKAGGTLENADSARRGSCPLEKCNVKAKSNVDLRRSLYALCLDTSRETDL
# Chain of hKv1.3 (P22001 whole entry): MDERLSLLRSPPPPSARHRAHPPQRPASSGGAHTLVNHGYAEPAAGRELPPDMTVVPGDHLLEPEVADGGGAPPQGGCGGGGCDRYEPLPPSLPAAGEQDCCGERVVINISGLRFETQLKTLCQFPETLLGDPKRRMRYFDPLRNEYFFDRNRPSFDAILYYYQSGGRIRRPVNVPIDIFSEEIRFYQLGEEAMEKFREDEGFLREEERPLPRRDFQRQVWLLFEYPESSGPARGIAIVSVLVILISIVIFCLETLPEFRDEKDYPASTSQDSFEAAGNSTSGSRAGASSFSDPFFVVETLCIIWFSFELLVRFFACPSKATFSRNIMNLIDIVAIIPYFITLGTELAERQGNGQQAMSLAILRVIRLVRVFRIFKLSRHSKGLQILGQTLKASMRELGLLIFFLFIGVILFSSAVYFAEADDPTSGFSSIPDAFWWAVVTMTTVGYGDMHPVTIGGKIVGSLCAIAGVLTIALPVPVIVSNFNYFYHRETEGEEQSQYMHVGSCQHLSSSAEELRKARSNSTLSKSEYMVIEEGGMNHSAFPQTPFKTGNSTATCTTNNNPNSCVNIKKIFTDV
inhibition at 1 µM (hKv1.3) [%],inhibition at 0.3 µM (hKv1.5) [%],Molecule,suppression of DTH response [1],hKv1.3 % inh. 1 uM (hKv1.3) [%],hKv1.5 % inh. 300 nM (hKv1.5) [%]
–,–,"margatoxin (TIINVKCTSPKQCLPPCKAQFGQSAGAKCMNGKCKCYPH; ends and bridges not checked; cysteine pairing not given here; UniProt P40755 1-39, looked up) [MgTX]",effectively suppressed,–,–
94.2,47.1,"Cn1ccc(S(=O)(=O)N(Cc2ccc(Cl)cc2)c2ccc3c(c2)C(=O)N(CCO)CC3)n1 [Example 10, 1-Methyl-1H-pyrazole-3-sulfonic acid (4-chloro-benzyl)-[2-(2-hydroxy-ethyl)-1-oxo-1,2,3,4-tetrahydro-isoquinolin-7-yl]-amide]",–,–,–
96.1,70.1,"CCN1CC(C)(C)c2ccc(N(Cc3ccc(Cl)cc3)S(=O)(=O)c3cn(C)cn3)cc2C1=O [Example 6, 1-Methyl-1H-imidazole-4-sulfonic acid (4-chloro-benzyl)-(2-ethyl-4,4-dimethyl-1-oxo-1,2,3,4-tetrahydro-isoquinolin-7-yl)-amide]",–,–,–
88.3,64.2,"Cn1ccc(S(=O)(=O)N(Cc2ccc(Cl)cc2)c2ccc3c(c2)C(=O)NCC3(C)C)n1 [Example 16, 1-Methyl-1H-pyrazole-3-sulfonic acid (4-chloro-benzyl)-(4,4-dimethyl-1-oxo-1,2,3,4-tetrahydro-isoquinolin-7-yl)-amide]",–,–,–
–,–,"CCN1Cc2cc(N(Cc3ccc(Cl)cc3)S(=O)(=O)c3cccc(C#N)c3)ccc2C1=O [Example 12, N-(4-Chloro-benzyl)-3-cyano-N-(2-ethyl-1-oxo-2,3-dihydro-1H-isoindol-5-yl) benzene sulfonamide]",–,93.0,63.2
58,26.5,"CCN1CCc2cc(N(Cc3ccccc3)S(=O)(=O)c3cn(C)cn3)ccc2C1=O [Example 23, 1-Methyl-1H-imidazole-4-sulfonic acid benzyl-(2-ethyl-1-oxo-1,2,3,4-tetrahydro-isoquinolin-6-yl)-amide]",–,–,–
–,–,"CCN1Cc2ccc(N(Cc3ccc(Cl)cc3)S(=O)(=O)c3cccnc3)cc2C1=O [Example 2, Pyridine-3-sulfonic acid (40chloro-benzyl)-(2-ethyl-3-oxo-2,3-dihydro-1H-isoindol-5-yl)-amide]",–,97.2,65.0
72.6,34.1,"Cn1cnc(S(=O)(=O)N(Cc2ccc(Cl)cc2)c2ccc3c(c2)C(=O)NCC3(C)C)c1 [Example 20, 1-Methyl-1H-imidazole-4-sulfonic acid (4-chloro-benzyl)-(4,4-dimethyl-1-oxo-1,2,3,4-tetrahydro-isoquinolin-7-yl)-amide]",–,–,–
89.7,27.1,"CCN1Cc2ccc(N(Cc3ccc(Cl)cc3)S(=O)(=O)c3cn(C)cn3)cc2C1=O [Example 14, 1-Methyl-1H-imidazole-4-sulfonic acid (4-chloro-benzyl)-(2-ethyl-3-oxo-2,3-dihydro-1H-isoindol-5-yl)-amide]",–,–,–
–,–,"1-Methyl-1H-imidazole-4-sulfonic acid (4-chloro-benzyl)-(2-ethyl-1-oxo-2,3-dihydro-1H-isoindol-4-yl)-amide [Example 21]",–,69.8,23.8
67.9,30.6,"CCN1Cc2cc(N(Cc3ccc(Cl)cc3)S(=O)(=O)c3cn(C)cn3)ccc2C1=O [Example 22, 1-Methyl-1H-imidazole-4-sulfonic acid (4-chloro-benzyl)-(2-ethyl-1-oxo-2,3-dihydro-1H-isoindol-5-yl)-amide]",–,–,–
99.6,82.4,"CCN1CCc2ccc(N(Cc3ccc(Cl)cc3)S(=O)(=O)c3ccn(C)n3)cc2C1=O [Example 1, 1-Methyl-1H-pyrazole-3-sulfonic acid (4-chloro-benzyl)-(2-ethyl-1-oxo-1,2,3,4-tetrahydro-isoquinolin-7-yl)-amide]",–,–,–
96.4,76,"O=C1c2cc(N(Cc3ccc(Cl)cc3)S(=O)(=O)c3cccnc3)ccc2CCN1CCO [Example 5, Pyridine-3-sulfonic acid (4-chloro-benzyl)-[2-(2-hydroxy-ethyl)-1-oxo-1,2,3,4-tetrahydro-isoquinolin-7-yl]-amide]",–,–,–
94.5,76.4,"CN1CCc2ccc(N(Cc3ccc(Cl)cc3)S(=O)(=O)c3ccn(C)n3)cc2C1=O [Example 9, 1-Methyl-1H-pyrazole-3-sulfonic acid (4-chloro-benzyl)-(2-methyl-1-oxo-1,2,3,4-tetrahydro-isoquinolin-7-yl)-amide]",–,–,–
95.5,42.6,"Cn1ccc(S(=O)(=O)N(Cc2ccc(Cl)cc2)c2ccc3c(c2)C(=O)NCC3)n1 [Example 7, 1-Methyl-1H-pyrazole-3-sulfonic acid (4-chloro-benzyl)-(1-oxo-1,2,3,4-tetrahydro-isoquinolin-7-yl)-amide]",–,–,–
94.6,91.2,"N#Cc1cccc(S(=O)(=O)N(Cc2ccc(Cl)cc2)c2ccc3c(c2)C(=O)NCC3)c1 [Example 8, N-(4-Chloro-benzyl)-3-cyano-N-(1-oxo-1,2,3,4-tetrahydro-isoquinolin-7-yl)-benzenesulfonamide]",–,–,–
–,–,"CCN1CCc2cc(N(Cc3ccccc3)S(=O)(=O)c3ccn(C)n3)ccc2C1=O [Example 19, 1-Methyl-1H-pyrazole-3-sulfonic acid benzyl (2-ethyl-1-oxo-1,2,3,4-tetrahydro-isoquinolin-6-yl)-amide]",–,74.3,25.4
75.2,77.3,"CCN1Cc2cc(N(Cc3ccc(Cl)cc3)S(=O)(=O)c3ccn(C)n3)ccc2C1=O [Example 18, 1-Methyl-1H-pyrazole-3-sulfonic acid (4-chloro-benzyl)-(2-ethyl-1-oxo-2,3-dihydro-1H-isoindol-5-yl)-amide]",–,–,–
–,–,O=c1ccc2c(OCCCCOc3ccccc3)c3ccoc3cc2o1 [PAP-1],effective,–,–
–,–,"N-(4-Chloro-benzyl)-3-cyano-N-(1-oxo-1,2,3,4-tetrahydro-isoquinolin-7-yl)-benzenesulfonamide [Example 3]",–,97.2,87.8
–,–,"CC(C)N1C(=O)c2ccc(N(Cc3ccc(Cl)cc3)S(=O)(=O)c3cn(C)cn3)cc2C1=O [Example 17, 1-Methyl-1H-imidazole-4-sulfonic acid (4-chloro-benzyl)-(2-isopropyl-1,3-dioxo-2,3-dihydro-1-H-isoindol-5-yl)-amide]",–,79.7,58.0
–,–,"CCN1Cc2ccc(N(Cc3ccc(Cl)cc3)S(=O)(=O)c3cccc(C#N)c3)cc2C1=O [Example 11, N-(4-Chloro-benzyl)-3-cyano-n-(2-ethyl-3-oxo-2,3-dihydro-1H-isoindol-5-yl)-benzene sulfonamide]",–,93.8,86.9
–,–,CC1(C)CNC(=O)c2cc(N(Cc3ccc(Cl)cc3)S(=O)(=O)c3cccnc3)ccc21 [Example 15],–,88.9,70.0
90.5,36,"O=C1NCCc2ccc(N(Cc3ccc(Cl)cc3)S(=O)(=O)c3cccnc3)cc21 [Example 13, Pyridine-3-sulfonic acid (4-chloro-benzyl)-(1-oxo-1,2,3,4-tetrahydro-isoquinolin-7-yl)-amide]",–,–,–
–,–,C=C1C[C@@]2(O)[C@@H]3CC[C@@]4(C)[C@@H]5C=CC(=O)OC[C@]5(C(C)OC(C)=O)[C@@H](OC(C)=O)[C@@H](OC(C)=O)[C@@H]4[C@@]3(C)[C@H](OC(C)=O)[C@H](OC(C)=O)[C@@]2(C)C2(C(=O)OC)O[C@H]12 (stereo partly shown) [Correolide],effective,–,–

Molecule,inhibition at 1 µM (hKv1.3) [%],inhibition at 0.3 µM (hKv1.5) [%],suppression of DTH response [1],hKv1.3 % inh. 1 uM (hKv1.3) [%],hKv1.5 % inh. 300 nM (hKv1.5) [%]
"CCN1Cc2ccc(N(Cc3ccc(Cl)cc3)S(=O)(=O)c3ccn(C)n3)cc2C1=O [Example 4, 1-Methyl-1H-pyrazole-3-sulfonic acid (4-chloro-benzyl)-(2-ethyl-3-oxo-2,3-dihydro-1H-isoindol-5-yl)-amide]",96.6,63.8,–,–,–
